Values joined by “and” are separate entries in the source; they are usually repeats but may differ in a detail not shown here. Equal entries are not always repeated. Structures can show the parent of a compound that is named as a salt.

Broadly, the melting point is the temperature, or range, at which the solid turns liquid. As for `O=C(N[C@H](Cc1ccccc1)C(=O)O)OCc1nc2cc(-c3ccccc3)ccc2o1` (as salt: ammonium) [Compound 53, (R)-3-phenyl-2-(5-phenyl-benzoxazol-2-ylmethoxycarbonylamino) propionic acid], the melting point is 150.9 to 152.7 °C.

The compound `O=C(N[C@H](Cc1ccccc1)C(=O)O)OCC1Cc2cc(-c3ccccc3)ccc2O1` (stereo partly drawn) (as salt: salt) [Compound 68, (R)-3-Phenyl-2-(5-phenyl-2,3-dihydro-benzofuran-2-ylmethoxycarbonylamino)-propionic acid] showed a melting point of 176.3 to 182 °C.

Compound `O=C(N[C@H](Cc1ccccc1)C(=O)O)OCc1cc2cc(-c3cccc4[nH]ccc34)ccc2o1` (as salt: salt) [Compound 137, (R)-2-[5-(1H-indol-4-yl)-benzofuran-2-ylmethoxycarbonylamino]-3-phenyl-propionic acid] came in with a melting point of 100 to 106 °C.

On to `O=C(N[C@H](Cc1ccccc1)C(=O)O)OCc1cc2cc(-c3ccc(F)cc3)ccc2o1` (hydrate or solvate) [Compound 91, (R)-2-[5-(4-fluoro-phenyl)-benzofuran-2-ylmethoxycarbonylamino]-3-phenyl-propionic acid], for which the melting point was 129.5 to 131.5 °C. The value for `COc1ccc(-c2ccc3oc(COC(=O)N[C@H](Cc4ccccc4)C(=O)O)cc3c2)cc1` (hydrate or solvate) [Compound 92, (R)-2-[5-(4-methoxy-phenyl)-benzofuran-2-ylmethoxycarbonylamino]-3-phenyl-propionic acid] was 132 to 156.1 °C; that for `O=C(N[C@H](Cc1ccccc1)C(=O)O)OCc1cc2cc(-c3ccc(Cl)cc3)ccc2o1` (hydrate or solvate) [Compound 94, (R)-2-[5-(4-chloro-phenyl)-benzofuran-2-ylmethoxycarbonylamino]-3-phenyl-propionic acid] was 129.5 to 144 °C; that for `Cc1ccc(-c2ccc3oc(COC(=O)N[C@H](Cc4ccccc4)C(=O)O)cc3c2)cc1` (hydrate or solvate) [Compound 95, (R)-2-[5-(4-methyl-phenyl)-benzofuran-2-ylmethoxycarbonylamino]-3-phenyl-propionic acid] was 151 to 154 °C.

As to `N#Cc1cccc(-c2ccc3oc(COC(=O)N[C@H](Cc4ccccc4)C(=O)O)cc3c2)c1` (hydrate or solvate) [Compound 96, (R)-2-[5-(3-cyano-phenyl)-benzofuran-2-ylmethoxycarbonylamino]-3-phenyl-propionic acid], the melting point lay in the range of 64 to 68.5 °C. The value for `O=C(N[C@H](Cc1ccccc1)C(=O)O)OCc1cc2cc(-c3ccc4c(c3)OCO4)ccc2o1` (hydrate or solvate) [Compound 97, (R)-2-(5-benzo[1,3]dioxol-5-yl-benzofuran-2-ylmethoxycarbonylamino)-3-phenyl-propionic acid] was 125 to 131 °C; that for `O=C(N[C@H](Cc1ccccc1)C(=O)O)OCc1cc2cc(-c3ccccc3F)ccc2o1` (hydrate or solvate) [Compound 98, (R)-2-[5-(2-fluoro-phenyl)-benzofuran-2-ylmethoxycarbonylamino]-3-phenyl-propionic acid] was 97.1 to 100.8 °C; that for `O=C(N[C@H](Cc1ccc(F)cc1)C(=O)O)OCc1cc2cc(-c3ccccc3)ccc2o1` (hydrate or solvate) [Compound 105, (R)-3-(4-fluoro-phenyl)-2-(5-phenylbenzofuran-2-ylmethoxycarbonylamino)-propionic acid] was 131.5 to 135 °C.

The compound `O=C(N[C@H](Cc1ccc(F)cc1)C(=O)O)OCc1cc2cc(-c3ccc(F)cc3)ccc2o1` (hydrate or solvate) [Compound 111, (R)-3-(4-fluoro-phenyl)-2-[5-(4-fluorophenyl)-benzofuran-2-ylmethoxycarbonylamino]-propionic acid] gave a melting point of 158 to 162 °C. The value for `N#Cc1cccc(-c2ccc3oc(COC(=O)N[C@H](Cc4ccc(F)cc4)C(=O)O)cc3c2)c1` (hydrate or solvate) [Compound 112, (R)-2-[5-(3-cyano-phenyl)-benzofuran-2-ylmethoxycarbonylamino]-3-(4-fluoro-phenyl)-propionic acid] was 84 to 87.5 °C; that for `O=C(N[C@H](Cc1ccc(F)cc1)C(=O)O)OCc1cc2cc(-c3cccnc3)ccc2o1` (hydrate or solvate) [Compound 125, (R)-3-(4-fluoro-phenyl)-2-(5-pyridin-3-yl-benzofuran-2-ylmethoxycarbonylamino)-propionic acid] was 176.9 to 178.4 °C. The compound `COc1cccc(OCc2ccc(COC(=O)NC(Cc3ccccc3)C(=O)O)cc2)c1` (stereo not shown) (hydrate or solvate) [Compound 154, 2-[4-(3-methoxy-phenoxymethyl)-benzyloxycarbonylamino]-3-phenyl-propionic acid] yielded a melting point of 62.5 to 64.8 °C. Next, `O=C(N[C@H](Cc1ccccc1)C(=O)O)OCc1ccc(COc2ccccc2)cc1` [Compound 7, (R)-2-(4-Phenoxymethyl-benzyloxycarbonylamino)-3-phenyl-propionic acid]: 115.9 to 116.7 °C. Next, `O=C(N[C@H](Cc1ccccc1)C(=O)O)OCc1cc2cc(-c3ccccc3)ccc2o1` [Compound 19, (R)-2-(5-Phenyl-benzofuran-2-ylmethoxycarbonylamino)-3-phenyl-propionic acid]: 154 to 156 °C; `O=C(N[C@H](Cc1ccccc1)C(=O)O)OCc1ccc2oc(-c3ccccc3)cc2c1` [Compound 29, (R)-3-Phenyl-2-(2-phenyl-benzofuran-5-ylmethoxycarbonylamino)-propionic acid]: 172.8 to 173.5 °C; `O=C(NC(Cc1ccccc1)C(=O)O)OCc1ccc(COc2cccc3[nH]ccc23)cc1` (stereo not shown) [Compound 41, 2-[4-(1H-indol-4-yloxymethyl)-benzyloxycarbonylamino]-3-phenyl-propionic acid]: 106.8 to 108.2 °C and 105.9 to 108.5 °C. Next, `O=C(NC(Cc1ccccc1)C(=O)O)OCc1ccc(CCOc2ccccc2)cc1` (stereo not shown) [Compound 73, 2-[4-(2-Phenoxy-ethyl)-benzyloxycarbonylamino]-3-phenyl-propionic acid]: 150.2 to 152.4 °C. Compound `COc1ccccc1OCc1ccc(COC(=O)NC(Cc2ccccc2)C(=O)O)cc1` (stereo not shown) [Compound 74, 2-[4-(2-methoxy-phenoxymethyl)-benzyloxycarbonylamino]-3-phenyl propionic acid] came in with a melting point of 92.6 to 93.5 °C. Next, `O=C(NC(Cc1ccccc1)C(=O)O)OCc1ccc(COc2ccccc2F)cc1` (stereo not shown) [Compound 75, 2-[4-(2-fluoro-phenoxymethyl)-benzyloxycarbonylamino]-3-phenyl-propionic acid]: 114 to 117 °C; `O=C(NC(Cc1ccccc1)C(=O)O)OCc1ccc(COc2cccc(F)c2)cc1` (stereo not shown) [Compound 76, 2-[4-(3-fluoro-phenoxymethyl)-benzyloxycarbonylamino]-3-phenyl-propionic acid]: 107.9 to 110 °C. Next, `CS(=O)(=O)Nc1cccc(OCc2ccc(COC(=O)N[C@H](Cc3ccccc3)C(=O)O)cc2)c1` [Compound 77, (R)-2-[4-(3-methanesulfonylamino-phenoxymethyl)-benzyloxycarbonylamino]-3-phenyl-propionic acid]: 161.9 to 164.9 °C; `O=C(N[C@H](Cc1ccccc1)C(=O)O)OCc1ccc(COc2cccc(NS(=O)(=O)c3ccccc3)c2)cc1` [Compound 78, (R)-2-[4-(3-benzenesulfonylamino-phenoxymethyl)-benzyloxycarbonylamino]-3-phenyl-propionic acid]: 96.6 to 98.6 °C; `CC(=O)Nc1cccc(OCc2ccc(COC(=O)N[C@H](Cc3ccccc3)C(=O)O)cc2)c1` [Compound 79, (R)-2-[4-(3-acetylamino-phenoxymethyl)-benzyloxycarbonylamino]-3-phenyl-propionic acid]: 190.3 to 193.5 °C. Next, `O=C(N[C@H](Cc1ccccc1)C(=O)O)OCc1ccc(COc2cccc([N+](=O)[O-])c2)cc1` [Compound 80, (R)-2-[4-(3-nitro-phenoxymethyl)-benzyloxycarbonylamino]-3-phenyl-propionic acid]: 160.8 to 161.7 °C; `O=C(N[C@H](Cc1ccccc1)C(=O)O)OCc1ccc(COc2cccc(NC(=O)c3ccccc3)c2)cc1` [Compound 81, (R)-3-phenyl-2-(4-{3-[(1-phenyl-methanoyl)-amino]-phenoxymethyl}-benzyloxycarbonylamino)-propionic acid]: 161.9 to 163.7 °C; `O=C(NC(Cc1ccccc1)C(=O)O)OCc1ccc(COc2ccccc2)c(F)c1` (stereo not shown) [Compound 82, 2-(3-fluoro-4-phenoxymethyl-benzyloxycarbonylamino)-3-phenyl-propionic acid]: 104.2 to 104.7 °C. For the compound `O=C(NC(Cc1cccc(NS(=O)(=O)c2ccccc2)c1)C(=O)O)OCc1ccc(COc2ccccc2)cc1` (stereo not shown) [Compound 83, 3-(3-benzenesulfonylamino-phenyl)-2-(4-phenoxymethyl-benzyloxycarbonylamino)-propionic acid], the melting point fell in the range of 129.7 to 130.3 °C. The value for `O=C(Cc1ccc(OCc2ccccc2)cc1)NC(Cc1ccccc1)C(=O)O` (stereo not shown) [Compound 84, 2-(4-benzyloxybenzylcarbonylamino)-3-phenyl-propionic acid] was 118.3 to 119.9 °C; that for `O=C(NC(Cc1ccccc1)C(=O)O)OCc1ccc(OCc2ccc(F)cc2)cc1` (stereo not shown) [Compound 85, 2-[4-(4-fluoro-benzyloxy)-benzyloxycarbonylamino]-3-phenyl-propionic acid] was 134 to 138 °C; that for `O=C(NC(Cc1ccccc1)C(=O)O)OCc1ccc(OCCc2ccccc2)cc1` (stereo not shown) [Compound 86, 2-(4-phenethyloxy-benzyloxycarbonylamino)-3-phenyl-propionic acid] was 96.9 to 97.4 °C. Next, `O=C(N[C@H](Cc1ccccc1)C(=O)O)OCc1ccc(OCCCc2ccccc2)cc1` [Compound 87, (R)-3-phenyl-2-[4-(3-phenyl-propoxy)-benzyloxycarbonylamino]-propionic acid]: 105.6 to 106.5 °C.

For the origin of these results see patent US7056903B2, “Carboxylic acid derivatives as IP antagonists” (Syntex (U.S.A.) LLC, priority 2000, dated 2006).
